Columns and labels:
[1] = test system: Sal. Typhimurium TA100 strain; assay: Ames test, TA100; details: without S9, positive control 100 μL/plate
Method: (§1) The Ames test was carried out using Sal. Typhimurium TA98 strain and Sal. Typhimurium TA100 strain without an enzyme for activating metabolism of drugs (S9).
(§2) The Ames test was carried out using Sal. Typhimurium TA98 strain and Sal. Typhimurium TA100 strain with an enzyme for activating metabolism of drugs (S9). DMSO (100 μL/plate) was used as negative control, and (+)Benzo[α]pyrene (100 μL/plate) was used as positive control.

[2] = test system: Sal. Typhimurium TA98 strain; assay: Ames test, TA98; details: without S9, positive control 100 μL/plate
Method: as §1, §2

SMILES: Nc1ccc([N+](=O)[O-])cc1N [NOPD, 4-nitro-o-phenylenediamine]
- TA100 (CFU/plate) [1]: 1019 CFU/plate
- TA98 (CFU/plate) [2]: 1200 CFU/plate

Source: US9737607B2, “Polymer, and pharmaceutical composition employing the same” (INDUSTRIAL TECHNOLOGY RESEARCH INSTITUTE, priority 2014, dated 2017)
